# Results published in US20160290995A1, “METHODS OF SELECTING AKT AGONISTS OR ANTAGONISTS” (OREGON HEALTH & SCIENCE UNIVERSITY, priority 2015, published 2016).
# pIC50: −log10 of the molar value. Read-outs that look alike come from different tables or passages of the source.
# What was measured:
# [1] = test system: Akt; test: FOXO1-clover reporter live-cell imaging (relative nuclear intensity) in C3H10T1/2 fibroblasts; assay type: cell-based, mouse; details: for effect of inhibitor on IGF-I-mediated reporter localization: 90 min, graded inhibitor concentrations; for pIC50: Mus musculus, C3H 10T1/2; for mean rate of nuclear import of FOXO1-clover: after R3-IGF-I 250 pM; for change of nuclear levels of the reporter on growth factor addition (result in words): different concentrations; for change of nuclear levels of the reporter on growth factor addition (result in words) / time to half-maximal translocation/accumulation of reporter in the cytoplasm after onset of incubation / time to maximal translocation values: cells pre-incubated in SFM; for time to half-maximal translocation/accumulation of reporter in the cytoplasm after onset of incubation / time to maximal translocation values: different growth factor concentrations
# Method: (§1) Cells were imaged every 2-min for 60 min. At the end of the incubation period whole cell lysates were collected.
# 10T1/2 cells and C2 myoblasts were incubated in serum-free medium for 90 min. R3-IGF-I was added in supplemented FluoroBrite [0 to 500 pM], and cells were imaged every 2-min for 60 min. […]
# (§2) Live cell imaging was performed using an EVOS FL Auto microscope with a stage top incubator that was maintained at 37° C. and 95% humidified air with 5% CO2. Images were collected at 100× magnification at different intervals, using a 10× Fluorite objective (numerical aperture: 0.3), and a GFP light cube (excitation peak, 472/22 nm; emission peak, 510/42 nm). Images were analyzed with the NIH ImageJ plug-in Fiji (NIH, Bethesda, Md.), after using the Polynomial Fit plug-in to subtract background fluorescence, the Stack Reg (rigid registration) plug-in to register images, and the Gaussian Blur plug-in (at 2-pixels) to average fluorescence across pixels. Individual cells were manually tracked using the mTrackJ plug-in (Meijering E et al, Methods Enzymol 504, 183-200 (2012); incorporated by reference herein) by selecting a single point in the nucleus. Cells that died, divided, or migrated out of frame were excluded from analysis. In experiments performed in 6-well dishes, two locations on opposite sides of the well were imaged, while for studies using 24-well plates, one central location was imaged. In each location, at least 25 cells were tracked.
# [2] = test system: Akt; test: FoxO1-clover reporter live-cell imaging in HeLa cells; assay type: cell-based; details: IGF-I 500 pM, insulin 1400 pM, EGF 4.2 nM, PDGF-BB 4.1 nM, PDGF-AA 3.5 nM; 90 min
# Method: HeLa cells (ATCC #CCL2) were incubated in DMEM supplemented with 10% FBS. Cells were transduced at 50% of confluent density with concentrated FoxO1-clover virus in the presence of polybrene (6 μg/ml), as described (Gross S M and Rotwein P, Skelet Muscle 3, doi10.1186/2044-5040-3-10 (2013); incorporated by reference herein), and sorted by fluorescence intensity with a Becton-Dickinson Influx cell sorter. Reporter expression was stable for at least 10 passages in each sorted cell population. C3H10T1/2 mouse embryonic fibroblasts (ATC #CCL226) stably expressing FoxO1-clover (Gross and Rotwein, 2015), were maintained under selection with puromycin (2 μg/ml).
# as §2, with “tracked. The relative nuclear intensity of the FoxO1-clover reporter protein was calculated in each cell by normalizing the values measured at time 0 to 100%. This corresponded to incubation in serum-free medium (SFM). In graphs in which single cell responses were plotted with C3H10T1/2 cells, we applied a time-weighted smoothing filter to each data point. This consisted of averaging contributions from the two prior and two succeeding times (adding 50% of the prior or succeeding time point, and 25% of the next succeeding or earlier time point to 100% of the value of the time point in question, and then dividing by 2.5).” for “tracked.”
# Short-term responses to individual growth factors: C3H10T1/2 cells were incubated in serum-free Fluorobrite medium plus 2 mM L-glutamine and 0.1% bovine serum albumin for 90 min. Different concentrations of growth factors were added and images were collected every 2 min for 90 min. Growth factors included insulin [0 to 1400 pM], EGF [0 to 4.2 nM], PDGF-AA [0 to 1400 pM], or PDGF-BB [0 to 104 pM]. HeLa cells were incubated in serum-free Fluorobrite medium for 120 min and then incubated with insulin [1400 pM], EGF [4.2 nM], PDGF-AA [3.5 nM], PDGF-BB [4.1 nM], or R3-486 IGF-I [500 pM], with images collected every 2 min.
# [3] = test system: Akt phosphorylation; test: Immunoblotting of Akt and PRAS40 phosphorylation in 10T1/2 whole cell lysates; assay type: cell-based, mouse; details: for time course of Akt and PRAS40 phosphorylation (result in words): insulin 1400 pM, EGF 4.2 nM, PDGF-AA 1400 pM, PDGF-BB 104 pM, up to 90 min
# Method: as §1
# Whole cell protein lysates were prepared as described (Mukherjee A and Rotwein P, Mol Endorcrinol 22, 1238-1250 (2008); incorporated by reference herein). Protein aliquots (15 μg/lane) were resolved by SDS-PAGE (12% separating gel), followed by transfer to Immobilon-FL membranes, and blocking with 50% AquaBlock solution. Membranes were incubated sequentially with primary and secondary antibodies, as described (Mukherjee and Rotwein, 2008 supra). Primary antibodies were incubated for 12-16 hr at a 1:1000 dilution, except for α-tubulin (1:10,000), and secondary antibodies for 90 min at 1:5000. Images were captured using the LiCoR Odyssey and version 3.0 analysis software (Lincoln, Nebr.).
# C3H10T1/2 cells stably expressing FoxO1-clover were incubated in SFM with Fluorobrite imaging media for 90 min followed by addition of insulin [1400 pM], EGF [4.2 nM], PDGF-AA [1400 pM], or PDGF BB [104 pM]. Whole protein lysates were collected after 0, 5, 15, 30, 60, and 90 min of growth factor exposure by washing cells twice with cold PBS and addition of RIPA buffer containing protease and phosphatase inhibitors (Mukherjee A and Rotwein P, Mol Endocrinol 22, 1238-1250 (2008); incorporated by reference herein). Protein aliquots (12.5 μg/lane) were resolved by SDS PAGE (10% separating gels), and transferred onto Immobilon-FL membranes. Membranes were incubated in 50% AquaBlock for 60 min, followed by addition of primary antibodies at 1:1000 dilution for 16 hr, and secondary antibodies for 90 min at 1:5000. Images were collected using the LiCoR Odyssey and analysis software version 3.0 (Lincoln, Nebr.).
# [4] = two highest concentrations of PDGF-AA
# [5] = higher concentrations of PDGF-BB
# [6] = lower growth factor concentrations
compound,measurement,setting,value
"C[C@]1(O)C[C@@H](c2nc(-c3ccc4ccc(-c5ccccc5)nc4c3)c3c(N)nccn32)C1 [Linsitinib, reference compound]",effect of inhibitor on IGF-I-mediated reporter localization,[1]; IGF-I 500 pM,dose-dependent decline in maximal IGF-I-mediated cytoplasmic localization of the FoxO1-clover reporter molecule
"Oc1cccc(-c2nc(N3CCOCC3)c3oc4ncccc4c3n2)c1 [PI103, reference compound]",fraction of reporter in the nucleus,"[1]; 60 min after PI103 500 nM, following 60 min IGF-I 250 pM, scaled 0% = IGF-I, 100% = leptomycin",~56%
same,effect of inhibitor on IGF-I-mediated reporter localization,[1]; IGF-I 500 pM,dose-dependent decline in maximal IGF-I-mediated cytoplasmic localization of the FoxO1-clover reporter molecule
same,enhancement of mean rate of nuclear import by inhibition of PI3-kinase,[1]; Lepto plus PI103 vs Lepto alone,up to 4 fold
same,pIC50,"[1]; IGF-I 500 pM, read-out: IC50 for IGF-I-mediated signaling",6.70 to 7.30
same,pIC50,"[1]; PDGF-BB 830 pM, read-out: IC50 for PDGF-BB-mediated signaling",7.30 to 7.70
same,increase in nuclear localization of the reporter compared with serum-free medium alone,[1]; PI103 500 nM added to cells in SFM,~10%
same,time after addition of PI103 at which N/C=1,[1]; PI103 500 nM after IGF-I 250 pM,~15 min
same,mean rate of nuclear import of FOXO1-clover,[1]; leptomycin B 100 nM plus PI103 500 nM,> 12 % per min
"CCC(=C/[C@H](C)C/C=C/C(C)=C/[C@@H](C)C(=O)[C@@H](C)[C@H](O)[C@@H](C)C/C(C)=C/C(=O)O)/C=C/[C@@H]1OC(=O)C=C[C@@H]1C [leptomycin B, reference compound]",half-maximal time of nuclear appearance of reporter after leptomycin B,[1]; leptomycin B 100 nM after 60 min IGF-I 25 pM,~5 min
same,half-maximal time of nuclear appearance of reporter after leptomycin B,[1]; leptomycin B 100 nM after 60 min IGF-I 250 pM,~25 min
same,change of nuclear intensity of the reporter after subsequent leptomycin,[1]; leptomycin B 100 nM after PI103 in SFM,nearly a doubling
same,mean rate of nuclear import of FOXO1-clover,"[1]; leptomycin B 100 nM alone, single exponential fit of individual cells",~3 % per min
"EGF: mouse EGF (Gibco-Life Technologies), peptide growth factor (NSYPGCPSSYDGYCLNGGVCMHIESLDSYTCNCVIGYSGDRCQTRDLRWWELR; Epidermal growth factor; UniProt P01132 977-1029, looked up)",signaling response in HeLa FoxO1-clover cells (result in words),[2],transient responses
same,change of nuclear levels of the reporter on growth factor addition (result in words),[1]; population level,"rapid, dose-dependent, and transient decreases in nuclear levels of the FoxO1-clover reporter protein"
same,time by which signal intensity was waning,"[1]; population level, after EGF treatment",45 min
same,time to half-maximal translocation/accumulation of reporter in the cytoplasm after onset of incubation,[1]; population level,6 to 9 min
same,time to maximal translocation values,[1]; population level,~13 min
same,response to a second treatment with the same growth factor,"[1]; sequential exposures, IGF-I 50 or 500 pM with 90-min washout, EGF 4.2 nM after 60 min EGF",minimally promoted FoxO1-clover reporter translocation out of the nucleus
same,time course of Akt and PRAS40 phosphorylation (result in words),[3],Similarly transient effects
PDGF-AA: recombinant human PDGF-AA (Thermo Scientific); binds almost exclusively to the PDGF-α receptor,signaling response in HeLa FoxO1-clover cells (result in words),[2],ineffective
same,change of nuclear levels of the reporter on growth factor addition (result in words),[1]; population level,"rapid, dose-dependent decreases in nuclear levels of FoxO1-clover"
same,decline of population response from peak values,[1]; over the next 40 min after the peak,50-75%
same,time to half-maximal translocation/accumulation of reporter in the cytoplasm after onset of incubation,[1]; population level,6 to 10 min
same,time to maximal translocation values,[1]; population level,~14 min
same,fraction of cells demonstrating sustained effects,[1]; [4],10-15%
same,fraction of cells showing no or minimal responses,[1]; [4],25-30%
same,time course of Akt and PRAS40 phosphorylation (result in words),[3],Similarly brief effects
PDGF-BB: recombinant human PDGF-BB (Invitrogen); binds PDGF-α and PDGF-β receptors,signaling response in HeLa FoxO1-clover cells (result in words),[2],transient responses
same,duration of maintained cytoplasmic localization of the reporter,[1]; [5],at least 90 min
same,time to half-maximal accumulation of FoxO1-clover in the cytoplasm,[1]; [5],< 5 min
same,time to half-maximal accumulation of FoxO1-clover in the cytoplasm,[1]; [6],8 to 9 min
same,time to maximal values,[1]; [6],~14 min
same,fraction of cells showing large and sustained signaling responses,[1]; peak concentrations of PDGF-BB,90-99%
same,subcellular localization of FOXO1-clover (result in words),"[1]; serum-starved cells, 60 min, 10% FBS, PDGF-BB 206 pM, R3-IGF-I 1 nM, BMP-2 15 nM",rapid and sustained translocation of the reporter from the nucleus to the cytoplasm
same,Akt phosphorylation (pAkt T308 immunoblot),"[3]; 60 min, 10% FBS, PDGF-BB 206 pM, R3-IGF-I 1 nM, BMP-2 15 nM",stimulation of Akt phosphorylation
same,time course of Akt and PRAS40 phosphorylation (result in words),[3],Similarly sustained signaling
